Laboratory results taken from ChEMBL document CHEMBL1157536, “Improvement of meta-tetra(hydroxyphenyl)chlorin-like photosensitizer selectivity with folate-based targeted delivery. synthesis and in vivo delivery studies” (J Med Chem, 2008).

Tests used:
Conditions in all cases: in vivo
[1] = Ratio of drug uptake in tumor to skin in human KB cells expressing folate receptor xenografted athymic Swiss nude mouse with folate diet assessed as fluorescence accumulation by UV-visible spectrophotometer; format: ADME, cell-based
[2] = Ratio of drug uptake in tumor to skin in human KB cells expressing folate receptor xenografted athymic Swiss nude mouse with folate free diet assessed as fluorescence accumulation by UV-visible spectrophotometer; format: ADME, cell-based
[3] = Ratio of drug uptake in tumor to skin in folate receptor deficient HT29 cells xenografted athymic Swiss nude mouse with folate diet assessed as fluorescence accumulation by UV-visible spectrophotometer; format: ADME, cell-based, HT-29
[4] = Ratio of drug uptake in tumor to skin in folate receptor deficient HT29 cells xenografted athymic Swiss nude mouse with folate free diet assessed as fluorescence accumulation by UV-visible spectrophotometer; format: ADME, cell-based, HT-29

Compound | Ratio [1] | Ratio [2] | Ratio [3] | Ratio [4]
O=C(O)c1ccc(-c2c3nc(c(-c4cccc(O)c4)c4ccc([nH]4)c(-c4cccc(O)c4)c4nc(c(-c5cccc(O)c5)c5ccc2[nH]5)C=C4)CC3)cc1 | 2.8 | 2.1 | 1.1 | 3.7
Nc1nc(O)c2nc(CNc3ccc(C(=O)NC(CCC(=O)NCCOCCOCCNC(=O)c4ccc(-c5c6nc(c(-c7cccc(O)c7)c7ccc([nH]7)c(-c7cccc(O)c7)c7nc(c(-c8cccc(O)c8)c8ccc5[nH]8)C=C7)CC6)cc4)C(=O)O)cc3)cnc2n1 (stereo not drawn) | 1.9 | 5 | 2.1 | 1
